Source: PubChem BioAssay (NCI)
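All cell lines were grown in 96-well plates and treated with compound for 48 hours. GI50 marks 50% less growth. TGI denotes the concentration required for complete inhibition of growth.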

Legend:
Experiment in all cases: NCI tumour cell line growth inhibition, 48 h
[1] = system: CAKI-1 renal
[2] = system: HOP-62 NSCLC
[3] = system: HOP-92 NSCLC
[4] = system: M14 melanoma
[5] = system: OVCAR-8 ovarian
[6] = system: SNB-19 CNS
[7] = system: SNB-75 CNS
[8] = system: T-47D breast
[9] = system: A498 renal
[10] = system: RXF 393 renal

SMILES | GI50 [1] [µM] | TGI [1] [µM] | GI50 [2] [µM] | TGI [2] [µM] | GI50 [3] [µM] | TGI [3] [µM] | GI50 [4] [µM] | TGI [4] [µM] | GI50 [5] [µM] | TGI [5] [µM] | GI50 [6] [µM] | TGI [6] [µM] | GI50 [7] [µM] | TGI [7] [µM] | GI50 [8] [µM] | TGI [8] [µM] | GI50 [9] [µM] | TGI [9] [µM] | GI50 [10] [µM] | TGI [10] [µM]
C[C@@H](Nc1nc(Nc2ccc(F)c(Cl)c2)nc2ccccc12)C1CC1 | 3.18 | 15.7 | 11.2 | 25 | 1.6 | 5.79 | 1.87 | 4.12 | 3.58 | 20.5 | 4.44 | 22.1 | 4.08 | 22.3 | 2.7 | 14 |  |  |  | 
O=C(CCCCC(=O)N/N=C\c1ccccc1O)N/N=C\c1ccccc1O |  |  | 4.12 | 71.8 | 11.3 | > 100 | 3.39 | > 100 | 2.6 | > 100 | 5.88 | > 100 | 3.39 | 20.5 |  |  | > 100 | > 100 | 3.76 | > 100
CC(=O)[O-].O=C([CH-]C(=O)c1ccccc1)c1ccccc1.O=C([CH-]C(=O)c1ccccc1)c1ccccc1.[Sm+3] | 3.57 | 15.9 | 1.96 | 9.04 | 4.96 | 19.6 | 4.55 | 17.5 | 2.13 | 16.3 | 6.44 | 65.7 | 2.12 | 6.76 |  |  | 13.1 | 37.2 |  | 
Cn1cccc1/C=C/c1cc(Br)c(/C=C/c2cccn2C)cc1Br |  | 39.7 |  |  |  | 39.5 |  | 57.9 |  |  |  | 92.8 |  | 16.5 |  |  |  | 45.1 |  | 25.1
Cc1cc(Nc2cc(N)ncn2)c(=O)n2c1C(=O)NC21CCCCC1 |  |  | 31.2 | > 100 | 13.3 | > 100 | > 100 | > 100 | > 100 | > 100 | > 100 | > 100 | 9.32 | > 100 | > 100 | > 100 | 50.7 | > 100 | 37.7 | > 100
Cc1ccc([C@]2(C)CC[C@H](C)/C2=C\Br)c(O)c1 | 4.32 | 16.6 | 4.22 | 15.7 | 10.4 | 25.2 | 3.51 | 13.3 | 5.88 | 21.9 | 4.6 | 18.9 |  |  | 6.45 | 27.9 | 5.31 | 20.3 | 3.08 | 12.4
Cc1ccc(C(=O)CC2=Nc3nnc(CCCCCCCc4nnc5n4C(=O)C(CC(=O)c4ccc(C)cc4)=N5)n3C2=O)cc1 |  | > 100 |  | > 100 |  |  |  | > 100 |  | > 100 |  | > 100 |  | 86.9 |  |  |  |  |  | > 100
CC1(C)CC(N(C(=O)/C=C/c2ccc([N+](=O)[O-])o2)C2CCCCC2)CC(C)(C)N1 |  | 17.2 |  | 34.5 |  | 14.8 |  | 9.54 |  | 17.8 |  | 26.3 |  | 22.3 |  |  |  | 30.6 |  | 
CC(C)=CC(=O)Cc1nc2ccc([N+](=O)[O-])cc2[nH]c1=O |  | > 100 |  | > 100 |  | > 100 |  | > 100 |  | > 100 |  | > 100 |  | > 100 |  |  |  | > 100 |  | > 100
NC(=S)NN=C1CSSC1 | 3.61 | 40.3 | 2.04 | 12.2 | 2.35 | 5.89 | 1.92 | 7.79 | 2.94 | 23.4 | 2.46 | 11.4 |  |  | 4.31 | 29.1 | 1.95 | 6.03 | 1.45 | 5.58
COC(=O)c1nn(C(=N)c2ccc(Cl)cc2)c2c1CCC2 |  | > 100 |  | > 100 |  | > 100 |  | > 100 |  | > 100 |  | > 100 |  | > 100 |  |  |  | > 100 |  | > 100
Brc1cc2c(cc1Br)CN(c1ccccc1)C2 |  |  |  | > 100 |  | > 100 |  | > 100 |  | > 100 |  | > 100 |  | > 100 |  |  |  | > 100 |  | > 100
O=NN(CCCl)C(=O)NC1CCC(CC2CCC(NC(=O)N(CCCl)N=O)CC2)CC1 (stereo not given) |  | > 100 |  | 82.3 |  | > 76.6 |  | > 100 |  | > 31.6 |  | 49.1 |  | 42.5 |  |  |  | 93.9 |  | 44.6
O=C(NC(=O)c1ccccc1[N+](=O)[O-])Nc1ccc(Oc2ncc(Cl)cn2)c(C(F)(F)F)c1 |  |  |  | 66.4 |  | 3.24 |  | 39.4 |  | 9.71 |  | 85.7 |  |  |  | > 89.1 |  | 1.29 |  | 
Cc1c(Cl)cccc1NC(=O)c1sc2nc3c(cc2c1N)CCCCC3 |  |  | 0.411 | 45.3 | 0.266 | 19.2 | 0.233 | > 50 | 0.825 | > 50 | 0.298 | > 50 |  |  | 0.22 | > 50 | 0.331 | 19.3 | 0.217 | 5.57
COc1cc(-c2csc(NC(=O)Nc3cc(Cl)cc(Cl)c3)n2)cc(OC)c1OC |  |  |  |  | 1.7 | 3.73 | 1.68 | 3.15 | 1.84 | 3.87 | 1.93 | 4.03 | 1.49 | 2.88 | 1.67 | 3.74 | 1.42 | 3.1 | 1.73 | 3.76
CN(C)C(=O)Oc1c(-c2ccccc2)c(=O)n2c3ccccc3n3c(=O)n(C)c(=O)c1c23 |  | > 100 |  | > 100 |  | > 100 |  | > 100 |  | > 100 |  | > 100 |  | > 100 |  |  |  | > 100 |  | > 100
C[C@]12CCC(=O)C=C1CC[C@@H]1C2CC[C@]2(C)c3nn(-c4ccccc4)nc3CC12 (stereo not given in full) |  |  |  | > 100 |  | > 100 |  | > 100 |  | > 100 |  | > 100 |  | > 100 |  |  |  | > 100 |  | > 100
